Each structure is given as a SMILES string.

This experiment deals with YAP-TEAD. Briefly: TEAD inhibition, Hippo Pathway TEAD Reporter MCF-7 luciferase assay. In kind it is cell-based. The following applies: Homo sapiens, MCF7, 24 h, Hippo Pathway TEAD Reporter MCF-7 cells, luciferase activity after 24 h; read-out: IC50 of the test compounds on YAP-TEAD inhibition (Group). An outline of the steps:
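MCF-7 cells carrying a TEAD-responsive firefly luciferase reporter, with nuclear YAP1 driving constitutive expression, were treated the day after plating with compounds (11 concentrations, 4 replicates; 0.1% DMSO control). After 24 h, luciferase was read by ONE-Glo luminescence and IC50 determined.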
Take `COc1ccc(OC2CCC(F)(F)CC2)cc1NC(=O)C1COC(=O)N1C` (stereo not drawn) [Compound 104, N-(5-((4,4-Difluorocyclohexyl)oxy)-2-methoxyphenyl)-3-methyl-2-oxo-oxazolidine-4-carboxamide]: the IC50 – broadly, the concentration needed to halve the response being measured – lay in the range of 50 to 300 nM.
In the case of `COc1ccc(O[C@H]2CC[C@H](C(F)(F)F)CC2)cc1NC(=O)[C@@H]1CCC(=O)N1C` [Compound 105, (S)—N-(2-Methoxy-5-(((trans)-4-(trifluoromethyl)cyclohexyl)oxy)phenyl)-1-methyl-5-oxopyrrolidine-2-carboxamide] it was below 50 nM; in that of `CN1C(=O)CCC1C(=O)Nc1cc(Oc2cccc(C(F)(F)F)c2)cc2c1NC(=O)CO2` (stereo not drawn) [Compound 106, 1-Methyl-5-oxo-N-(3-oxo-7-(3-(trifluoromethyl)phenoxy)-3,4-dihydro-2H-benzo[b][1,4]oxazin-5-yl)pyrrolidine-2-carboxamide], 301 to 2000 nM; in that of `CN1C(=O)CC[C@H]1C(=O)Nc1cc(O[C@H]2CC[C@@H](C(F)(F)F)CC2)cc2c1OCC2` [Compound 107, (S)-1-Methyl-5-oxo-N-(5-(((cis)-4-(trifluoromethyl)cyclohexyl)oxy)-2,3-dihydrobenzofuran-7-yl)pyrrolidine-2-carboxamide], below 50 nM.
For `CN1C(=O)CC[C@@H]1C(=O)Nc1cc(O[C@H]2CC[C@@H](C(F)(F)F)CC2)cc2c1OCC2` [Compound 108, (R)-1-Methyl-5-oxo-N-(5-(((cis)-4-(trifluoromethyl)cyclohexyl)oxy)-2,3-dihydrobenzofuran-7-yl)pyrrolidine-2-carboxamide] the value was 50 to 300 nM; for `O=C(Nc1cc(Oc2ccc(C(F)(F)F)cc2)cc2c1OCC2)C1CCC(=O)N1C1CC1` (stereo not drawn) [Compound 109, 1-Cyclopropyl-5-oxo-N-(5-(4-(trifluoromethyl)phenoxy)-2,3-dihydro-benzofuran-7-yl)pyrrolidine-2-carboxamide], below 50 nM.
For `COc1ccc(Oc2ccc(C(F)(F)F)cc2)cc1NC(=O)C1CCC(=O)N1C1CC1` (stereo not drawn) [Compound 110, 1-Cyclopropyl-N-(2-methoxy-5-(4-(trifluoromethyl)phenoxy)phenyl)-5-oxo-pyrrolidine-2-carboxamide] the value was below 50 nM; for `COc1ccc(Oc2ccc(F)c(F)c2)cc1NC(=O)C1CCC(=O)N1C1CC1` (stereo not drawn) [Compound 111, 1-Cyclopropyl-N-(5-(3,4-difluorophenoxy)-2-methoxyphenyl)-5-oxopyrrolidine-2-carboxamide], 50 to 300 nM; for `COc1ccc(Oc2ccc(OC(F)(F)F)cn2)cc1NC(=O)C1COC(=O)N1C` (stereo not drawn) [Compound 112, N-(2-Methoxy-5-((5-(trifluoromethoxy)pyridin-2-yl)oxy)phenyl)-3-methyl-2-oxooxazolidine-4-carboxamide], 50 to 300 nM.
As for `CN1C(=O)CCC1C(=O)Nc1cc(COC2CCC(F)(F)CC2)cc2c1OCCO2` (stereo not drawn) [Compound 113, N-(7-(((4,4-Difluorocyclohexyl)oxy)methyl)-2,3-dihydrobenzo[b][1,4]dioxin-5-yl)-1-methyl-5-oxopyrrolidine-2-carboxamide], the IC50 is 301 to 2000 nM.
In the case of `O=C(Nc1cc(Oc2ccc(C(F)(F)F)cc2)cc2c1OCCO2)C1CCC(=O)N1C1CC1` (stereo not drawn) [Compound 114, 1-Cyclopropyl-5-oxo-N-(7-(4-(trifluoromethyl)phenoxy)-2,3-dihydrobenzo[b][1,4]dioxin-5-yl)pyrrolidine-2-carboxamide] it was below 50 nM; in that of `COc1ccc(Oc2ccc(OC(F)(F)F)cn2)cc1NC(=O)C1CCC(=O)N1C` (stereo not drawn) [Compound 115, N-(2-Methoxy-5-((5-(trifluoromethoxy)pyridin-2-yl)oxy)phenyl)-1-methyl-5-oxopyrrolidine-2-carboxamide], 50 to 300 nM; in that of `COc1ccc(Oc2ccc(C(F)(F)F)cc2)cc1NC(=O)C1CCS(=O)(=O)C1` (stereo not drawn) [Compound 116, N-(2-Methoxy-5-(4-(trifluoromethyl)phenoxy)phenyl)tetrahydrothiophene-3-carboxamide 1,1-dioxide], 50 to 300 nM.
For `COc1ccc(Oc2ccc(C(F)(F)F)cc2)cc1NC(=O)C1CNC(=O)N1C` (stereo not drawn) [Compound 117, N-(2-Methoxy-5-(4-(trifluoromethyl)phenoxy)phenyl)-3-methyl-2-oxo-imidazolidine-4-carboxamide] the value was below 50 nM.
For `COc1ccc(Oc2ccc(C(F)(F)F)cn2)cc1NC(=O)C1CNC(=O)N1C` (stereo not drawn) [Compound 118, N-(2-Methoxy-5-((5-(trifluoromethyl)pyridin-2-yl)oxy)phenyl)-3-methyl-2-oxoimidazolidine-4-carboxamide] the value was below 50 nM; for `COc1ccc(Oc2ccc(C(F)(F)F)cc2)cc1NC(=O)[C@H]1CCC(=O)NC1` [Compound 119, (S)—N-(2-Methoxy-5-(4-(trifluoromethyl)phenoxy)phenyl)-6-oxopiperidine-3-carboxamide], below 50 nM; for `COc1ccc(Oc2ccc(C(F)(F)F)cc2)cc1NC(=O)[C@@H]1CCC(=O)NC1` [Compound 120, (R)—N-(2-Methoxy-5-(4-(trifluoromethyl)phenoxy)phenyl)-6-oxopiperidine-3-carboxamide], 301 to 2000 nM.
For `COc1ccc(Oc2ccc(C(F)(F)F)cc2)cc1NC(=O)C1(C)CCC(=O)NC1` (stereo not drawn) [Compound 121, N-(2-Methoxy-5-(4-(trifluoromethyl)phenoxy)phenyl)-3-methyl-6-oxo-piperidine-3-carboxamide], the IC50 lay in the range of 301 to 2000 nM.
In the case of `COc1ccc(Oc2ccc(C(F)(F)F)cc2)cc1NC(=O)c1ccc(=O)[nH]c1` [Compound 122, N-(2-Methoxy-5-(4-(trifluoromethyl)phenoxy)phenyl)-6-oxo-1,6-dihydro-pyridine-3-carboxamide] it was 301 to 2000 nM; in that of `COc1ccc(Oc2ccc(C(F)(F)F)cn2)cc1NC(=O)C1(C)CNC(=O)N1C` (stereo not drawn) [Compound 123, N-(2-Methoxy-5-((5-(trifluoromethyl)pyridin-2-yl)oxy)phenyl)-3,4-dimethyl-2-oxoimidazolidine-4-carboxamide], 301 to 2000 nM.
Turning to `COc1ccc(Oc2ccc(C(F)(F)F)cn2)cc1NC(=O)[C@H]1CNC(=O)N1C` [Compound 124, (R)—N-(2-Methoxy-5-((5-(trifluoromethyl)pyridin-2-yl)oxy)phenyl)-3-methyl-2-oxoimidazolidine-4-carboxamide], the IC50 was 301 to 2000 nM.
For `COc1ccc(Oc2ccc(C(F)(F)F)cn2)cc1NC(=O)[C@@H]1COC(=O)N1C` [Compound 125, (S)—N-(2-Methoxy-5-((5-(trifluoromethyl)pyridin-2-yl)oxy)phenyl)-3-methyl-2-oxooxazolidine-4-carboxamide] the value was 50 to 300 nM; for `COc1ccc(Oc2ccc(C(F)(F)F)cn2)cc1NC(=O)[C@H]1COC(=O)N1C` [Compound 126, (R)—N-(2-Methoxy-5-((5-(trifluoromethyl)pyridin-2-yl)oxy)phenyl)-3-methyl-2-oxooxazolidine-4-carboxamide], 50 to 300 nM.
For `CCN1C(=O)NCC1C(=O)Nc1cc(Oc2ccc(C(F)(F)F)cn2)ccc1OC` (stereo not drawn) [Compound 127, 3-Ethyl-N-(2-methoxy-5-((5-(trifluoromethyl)pyridin-2-yl)oxy)phenyl)-2-oxo-imidazolidine-4-carboxamide] the value was 50 to 300 nM; for `COc1ccc(Oc2ccc(C(F)(F)F)cn2)cc1NC(=O)[C@H]1CCC(=O)N1C1CC1` [Compound 128, (R)-1-Cyclopropyl-N-(2-methoxy-5-((5-(trifluoromethyl)pyridin-2-yl)oxy)-phenyl)-5-oxopyrrolidine-2-carboxamide], below 50 nM; for `COc1ccc(Oc2ccc(C(F)(F)F)cn2)cc1NC(=O)[C@@H]1CCC(=O)N1C1CC1` [Compound 129, (S)-1-Cyclopropyl-N-(2-methoxy-5-((5-(trifluoromethyl)pyridin-2-yl)oxy)-phenyl)-5-oxopyrrolidine-2-carboxamide], below 50 nM.
For `COc1ccc(Oc2ccc(C(F)(F)F)cn2)cc1NC(=O)[C@@H]1CNC(=O)N1C` [Compound 130, (S)—N-(2-Methoxy-5-((5-(trifluoromethyl)pyridin-2-yl)oxy)phenyl)-3-methyl-2-oxoimidazolidine-4-carboxamide] the value was below 50 nM; for `COc1ccc(Oc2ccc(C(F)(F)F)cn2)cc1NC(=O)C1CNC(=O)N1C1CC1` (stereo not drawn) [Compound 131, 3-Cyclopropyl-N-(2-methoxy-5-((5-(trifluoromethyl)pyridin-2-yl)oxy)phenyl)-2-oxoimidazolidine-4-carboxamide], below 50 nM.
For the compound `COc1ccc(Oc2ccc(C(F)(F)F)cc2)cc1NC(=O)[C@@]1(C)CCC(=O)N1C` [Compound 134, (R)—N-(2-methoxy-5-(4-(trifluoromethyl)phenoxy)phenyl)-1,2-dimethyl-5-oxopyrrolidine-2-carboxamide], the IC50 was below 50 nM.
In the case of `COc1ccc(Oc2ccc(C(F)(F)F)cc2)cc1NC(=O)[C@]1(C)CCC(=O)N1C` [Compound 135, (S)—N-(2-Methoxy-5-(4-(trifluoromethyl)phenoxy)phenyl)-1,2-dimethyl-5-oxo-pyrrolidine-2-carboxamide] it was 50 to 300 nM; in that of `COc1ccc(Oc2ccc(C(F)(F)F)cc2)cc1NC(=O)C1CCC(=O)N1CC(N)=O` (stereo not drawn) [Compound 136, 1-(2-Amino-2-oxoethyl)-N-(2-methoxy-5-(4-(trifluoromethyl)phenoxy)phenyl)-5-oxopyrrolidine-2-carboxamide], below 50 nM; in that of `COc1ccc(Oc2ccc(C(F)(F)F)cc2)cc1NC(=O)C1CCC(=O)N1c1cnn(C)c1` (stereo not drawn) [Compound 137, N-(2-Methoxy-5-(4-(trifluoromethyl)phenoxy)phenyl)-1-(1-methyl-1H-pyrazol-4-yl)-5-oxopyrrolidine-2-carboxamide], 301 to 2000 nM.
For `COc1ccc(Oc2ccc(C(F)(F)F)cc2)cc1NC(=O)C1CCC(=O)N1C1CCOC1` (stereo not drawn) [Compound 138, N-(2-Methoxy-5-(4-(trifluoromethyl)phenoxy)phenyl)-5-oxo-1-(tetrahydrofuran-3-yl)pyrrolidine-2-carboxamide] the value was 50 to 300 nM.

The values are drawn from US20240246908A1 (ORION CORPORATION, priority 2021, published 2024).
